For one assay, the system named is Z-138 cell line. Briefly: Z-138 Proliferation Assay (Cell Titer Glo, 5 days). Format: cell-based. To be noted: Homo sapiens, 120 h; Z-138 cells, 5 days; read-out: Proliferation EC50. The essentials:
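Viability via CellTiter-Glo luminescence (ATP) after 5-day incubation at 37 °C, 5% CO2. Compounds tested in triplicate, nine 3-fold steps, highest final concentration 20 μM in 0.2% DMSO; 50% inhibitory concentration by 4-parameter fit of normalized curves.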
(Cellular ATP, detected with luciferase, serves as a proxy for viable cell number.)

The test system of assay [1] is symmetric di-methyl arginine in Z-138 cells. Briefly: Z-138 Methylation Assay (In Cell Western for symmetric di-methyl arginine and DNA content). In kind it is cell-based. The settings on record: Homo sapiens, read-out: ICW EC50. The method in brief: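 In-cell western: symmetric di-methyl arginine signal ratioed to DRAQ5 DNA content after 96 h compound exposure of Z-138 cells seeded at 50,000 cells/mL.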

Each structure is given as a SMILES string. pEC50: −log10 of the molar value.

Turning to `CN(CCNc1cc(C(=O)NC[C@H](O)CN2CCc3ccccc3C2)ccn1)S(C)(=O)=O` [Compound 262], the pEC50 is 6.00 to 7.00 with Z-138 cell line and above 7.00 in assay [1].
For `CN(CCN(C)S(C)(=O)=O)c1cc(C(=O)NC[C@H](O)CN2CCc3ccccc3C2)ccn1` [Compound 263], the pEC50 with Z-138 cell line is 5.00 to 6.00; in assay [1], above 7.00.
Regarding `CN1CCCC(CNc2cc(C(=O)NC[C@H](O)CN3CCc4ccccc4C3)ccn2)C1` (stereo partly drawn) [Compound 264], the pEC50 in the assay on Z-138 cell line was 5.00 to 6.00; in assay [1], above 7.00.
In the case of `CN1CCOC(CNc2cc(C(=O)NC[C@H](O)CN3CCc4ccccc4C3)ccn2)C1` (stereo partly drawn) [Compound 265], the pEC50 in the assay with Z-138 cell line was 5.00 to 6.00; in assay [1], 6.00 to 7.00.
`CC(=O)N1CC[C@H](Nc2cccc(C(=O)NC[C@H](O)CN3CCc4ccccc4C3)c2)C1` [Compound 266]: the pEC50 is 6.00 to 7.00 in the assay with Z-138 cell line and above 7.00 in assay [1].
Turning to `CS(=O)(=O)N1CC[C@@H](Nc2cccc(C(=O)NC[C@H](O)CN3CCc4ccccc4C3)c2)C1` [Compound 267], the pEC50 in the assay with Z-138 cell line is 6.00 to 7.00; in assay [1], above 7.00.
For the compound `CS(=O)(=O)N1CC[C@H](Nc2cccc(C(=O)NC[C@H](O)CN3CCc4ccccc4C3)c2)C1` [Compound 268], the pEC50 is 6.00 to 7.00 in the assay on Z-138 cell line and above 7.00 in assay [1].
For `O=C(NC[C@H](O)CN1CCc2ccccc2C1)c1cc2ccccc2[nH]1` [Compound 269] the same measures were 5.00 to 6.00 and above 7.00.
Take `O=C(NC[C@H](O)CN1CCc2ccccc2C1)c1cc2ccccc2o1` [Compound 271]: the pEC50 in the assay with Z-138 cell line was 5.00 to 6.00; in assay [1], 6.00 to 7.00.
On to `O=C(NC[C@H](O)CN1CCc2ccccc2C1)c1nccc2ccccc12` [Compound 272], for which the values for the pEC50 (in the assay with Z-138 cell line; in assay [1]) were 5.00 to 6.00 and above 7.00, respectively.
Consider `O=C(NC[C@H](O)CN1CCc2ccccc2C1)c1ccc2ncsc2c1` [Compound 273], for which the pEC50 was 5.00 to 6.00 in the assay on Z-138 cell line and 6.00 to 7.00 in assay [1].
For `O=C(NC[C@H](O)CN1CCc2ccccc2C1)c1ccc2c(c1)OCCO2` [Compound 274] the same measures were 5.00 to 6.00 and 6.00 to 7.00.
For `Cc1cc2ncc(C(=O)NC[C@H](O)CN3CCc4ccccc4C3)c(C)n2n1` [Compound 275] the same measures were 5.00 to 6.00 and 6.00 to 7.00.
For the compound `O=C(NC[C@H](O)CN1CCc2ccccc2C1)c1cc2cccc(Cl)c2[nH]1` [Compound 276], the pEC50 was 5.00 to 6.00 in the assay with Z-138 cell line and 6.00 to 7.00 in assay [1].
As for `CN(CCOc1cccc(C(=O)NCC(O)CN2CCc3ccccc3C2)c1)CC(N)=O` (stereo not drawn) [Compound 277], the pEC50 is 5.00 to 6.00 with Z-138 cell line and above 7.00 in assay [1].
As to `CS(=O)(=O)N1CC(Nc2cc(C(=O)NC[C@H](O)CN3CCc4ccccc4C3)ccn2)C1` [Compound 278], the pEC50 with Z-138 cell line was 6.00 to 7.00; in assay [1] it was above 7.00.
On to `CC(=O)N1CC(Nc2cc(C(=O)NC[C@H](O)CN3CCc4ccccc4C3)ccn2)C1` [Compound 279], for which the pEC50 (with Z-138 cell line; in assay [1]) was above 7.00 throughout.
In the case of `O=C(NC[C@H](O)CN1CCc2ccccc2C1)c1cc(NC2CNC2)ncn1` [Compound 280], the results for the pEC50 (with Z-138 cell line; in assay [1]) were 6.00 to 7.00 and above 7.00, respectively.
Take `CN1CC(Nc2cc(C(=O)NC[C@H](O)CN3CCc4ccccc4C3)ncn2)C1` [Compound 281]: the figures for the pEC50 (in the assay on Z-138 cell line; in assay [1]) were 4.30 to 5.00 and 6.00 to 7.00, respectively.
As for `O=C(NC[C@H](O)CN1CCc2ccccc2C1)c1cc(NC2CN(CC(F)(F)F)C2)ncn1` [Compound 282], the figures for the pEC50 (in the assay on Z-138 cell line; in assay [1]) were 5.00 to 6.00 and above 7.00, respectively.
`CS(=O)(=O)N1CC(Nc2cc(C(=O)NC[C@H](O)CN3CCc4ccccc4C3)ncn2)C1` [Compound 283]: the pEC50 was 6.00 to 7.00 in the assay on Z-138 cell line and above 7.00 in assay [1].
For `CC(=O)N1CC(Nc2cc(C(=O)NC[C@H](O)CN3CCc4ccccc4C3)ncn2)C1` [Compound 284, (S)-6-((1-acetylazetidin-3-yl)amino)-N-(3-(3,4-dihydroisoquinolin-2(1H)-yl)-2-hydroxypropyl)pyrimidine-4-carboxamide], the pEC50 (with Z-138 cell line; in assay [1]) was above 7.00 in each case.
Regarding `O=C(NC[C@H](O)CN1CCc2ccccc2C1)c1cc(OC2CCN(CC(F)(F)F)CC2)ncn1` [Compound 285], the figures for the pEC50 (in the assay with Z-138 cell line; in assay [1]) were 5.00 to 6.00 and 6.00 to 7.00, respectively.
On to `CS(=O)(=O)N1CCC(Oc2cc(C(=O)NC[C@H](O)CN3CCc4ccccc4C3)ncn2)CC1` [Compound 286], for which the pEC50 in the assay with Z-138 cell line was 5.00 to 6.00; in assay [1], above 7.00.
For `CC(=O)N1CCC(Oc2cc(C(=O)NC[C@H](O)CN3CCc4ccccc4C3)ncn2)CC1` [Compound 287], the values for the pEC50 (in the assay on Z-138 cell line; in assay [1]) were 6.00 to 7.00 and above 7.00, respectively.
With `CN1CCC(Oc2cncc(C(=O)NC[C@H](O)CN3CCc4ccccc4C3)c2)CC1` [Compound 288], the pEC50 (in the assay on Z-138 cell line; in assay [1]) was above 7.00 each time.
With `CS(=O)(=O)N1CCC(Oc2cncc(C(=O)NC[C@H](O)CN3CCc4ccccc4C3)c2)CC1` [Compound 290], the figures for the pEC50 (in the assay with Z-138 cell line; in assay [1]) were 4.30 to 5.00 and 6.00 to 7.00, respectively.
Turning to `CC(=O)N(C)CCN(C)c1cc(C(=O)NC[C@H](O)CN2CCc3ccccc3C2)ccn1` [Compound 291], the figures for the pEC50 (in the assay on Z-138 cell line; in assay [1]) were 5.00 to 6.00 and above 7.00, respectively.
For `CN1CCC(CNc2cc(C(=O)NC[C@H](O)CN3CCc4ccccc4C3)ccn2)CC1` [Compound 292], the pEC50 in the assay with Z-138 cell line is 6.00 to 7.00; in assay [1], above 7.00.
For `CC(=O)N1CC[C@@H](Nc2cccc(C(=O)NC[C@H](O)CN3CCc4ccccc4C3)c2)C1` [Compound 293] the same measures were above 7.00 and above 7.00.
For `O=C(NC[C@H](O)CN1CCc2ccccc2C1)c1ccc2[nH]cnc2c1` [Compound 294], the values for the pEC50 (in the assay on Z-138 cell line; in assay [1]) were 5.00 to 6.00 and 6.00 to 7.00, respectively.
With `O=C(NC[C@H](O)CN1CCc2ccccc2C1)c1cc2c(F)cccc2[nH]1` [Compound 296], the pEC50 with Z-138 cell line is 6.00 to 7.00; in assay [1], above 7.00.
With `CS(=O)(=O)N1CCC(Nc2cc(C(=O)NC[C@H](O)CN3CCc4ccccc4C3)ncn2)CC1` [Compound 297], the pEC50 (in the assay on Z-138 cell line; in assay [1]) was above 7.00 in each case.
`O=C(NC[C@H](O)CN1CCc2ccccc2C1)c1cncc(NC2CCOCC2)c1` [Compound 298]: the results for the pEC50 (in the assay on Z-138 cell line; in assay [1]) were 6.00 to 7.00 and above 7.00, respectively.
For `O=C(NC[C@H](O)CN1CCc2ccccc2C1)c1cncc(NC2COC2)c1` [Compound 299] the same measures were 4.30 to 5.00 and 6.00 to 7.00.
As for `O=C(NC[C@H](O)CN1CCc2ccccc2C1)c1cncc(NC2CCN(CC(F)(F)F)CC2)c1` [Compound 300], the pEC50 with Z-138 cell line was 5.00 to 6.00; in assay [1], above 7.00.
For `CS(=O)(=O)N1CCC(Nc2cncc(C(=O)NC[C@H](O)CN3CCc4ccccc4C3)c2)CC1` [Compound 301], the values for the pEC50 (with Z-138 cell line; in assay [1]) were 6.00 to 7.00 and above 7.00, respectively.
Regarding `CC(=O)N1CCC(Nc2cncc(C(=O)NC[C@H](O)CN3CCc4ccccc4C3)c2)CC1` [Compound 302], the pEC50 (in the assay with Z-138 cell line; in assay [1]) was above 7.00 in each case.
On to `O=C(NC[C@H](O)CN1CCc2ccccc2C1)c1ccnc(NC2CCOC2)c1` (stereo partly drawn) [Compound 306], for which the pEC50 (in the assay on Z-138 cell line; in assay [1]) was above 7.00 in each case.
Regarding `Cc1cnc(NC2CCOCC2)cc1C(=O)NC[C@H](O)CN1CCc2ccccc2C1` [Compound 307], the pEC50 in the assay on Z-138 cell line is 6.00 to 7.00; in assay [1], above 7.00.
For `Cc1cnc(NC2CCOC2)cc1C(=O)NC[C@H](O)CN1CCc2ccccc2C1` (stereo partly drawn) [Compound 308] the same measures were 4.30 to 5.00 and 6.00 to 7.00.
With `Cn1nc(NC2CCOCC2)cc1C(=O)NCC(O)CN1CCc2ccccc2C1` (stereo not drawn) [Compound 311], the pEC50 (in the assay on Z-138 cell line; in assay [1]) was above 7.00 throughout.
Regarding `Cn1nc(C(=O)NCC(O)CN2CCc3ccccc3C2)cc1NC1CCOCC1` (stereo not drawn) [Compound 312], the pEC50 in the assay with Z-138 cell line was 5.00 to 6.00; in assay [1], 6.00 to 7.00.
For the compound `CNCCNc1cc(C(=O)NC[C@H](O)CN2CCc3ccccc3C2)ccn1` [Compound 314], the pEC50 in the assay with Z-138 cell line was 4.30 to 5.00; in assay [1], above 7.00.
For `CC(=O)N(C)CCNc1cc(C(=O)NC[C@H](O)CN2CCc3ccccc3C2)ccn1` [Compound 315] the same measures were 6.00 to 7.00 and above 7.00.
For the compound `O=C(NC[C@H](O)CN1CCc2ccccc2C1)c1ccnc(NCCNCC(F)(F)F)c1` [Compound 316], the pEC50 in the assay on Z-138 cell line was 5.00 to 6.00; in assay [1], above 7.00.
For `O=C(NC[C@H](O)CN1CCc2ccccc2C1)c1cnc2ccccc2c1` [Compound 317], the values for the pEC50 (with Z-138 cell line; in assay [1]) were 6.00 to 7.00 and above 7.00, respectively.
As for `O=C(NC[C@H](O)CN1CCc2ccccc2C1)c1ccc2cc(O)ccc2c1` [Compound 318], the pEC50 was 5.00 to 6.00 with Z-138 cell line and 6.00 to 7.00 in assay [1].
For `O=C(NC[C@H](O)CN1CCc2ccccc2C1)c1nc2cc(Br)ccc2[nH]1` [Compound 319] the same measures were 5.00 to 6.00 and above 7.00.
For `NCCNc1cc(C(=O)NC[C@H](O)CN2CCc3ccccc3C2)ccn1` [Compound 320] the same measures were 5.00 to 6.00 and 6.00 to 7.00.
Regarding `O=C(NC[C@H](O)CN1CCc2ccccc2C1)c1ccc(OC2CCN(CCO)CC2)cc1` [Compound 321], the pEC50 with Z-138 cell line was 6.00 to 7.00; in assay [1], above 7.00.
As for `CC(C)(C)C(=O)N1CCC(Oc2ccc(C(=O)NC[C@H](O)CN3CCc4ccccc4C3)cc2)CC1` [Compound 322], the pEC50 in the assay with Z-138 cell line is 6.00 to 7.00; in assay [1] it was above 7.00.
For `O=C(NC[C@H](O)CN1CCc2ccccc2C1)c1ccnc(OC2CCOCC2)c1` [Compound 323] the same measures were 6.00 to 7.00 and above 7.00.
For `CN(c1cc(C(=O)NC[C@H](O)CN2CCc3ccccc3C2)ccn1)C1CCOCC1` [Compound 324] the same measures were 6.00 to 7.00 and above 7.00.

For the origin of these results see US10307413B2, “Tetrahydro- and dihydro-isoquinoline PRMT5 inhibitors and uses thereof” (Epizyme, Inc., priority 2013, dated 2019).
